Test [1] concerns the target T1, Human mTOR (FLAG-TOR) (Homo sapiens, UniProt P42345).
T1 construct: FLAG
Briefly: Human mTOR kinase assay with purified enzyme, DELFIA format. The test is classed as biochemical. Summed up:
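DELFIA readout: Eu-anti-P(T389)-S6K antibody (40 ng/mL, 1 h) on captured His6-S6K from the stopped reaction. Kinase step used purified FLAG-tagged human mTOR with test compound in HEPES (pH 7.4)/MnCl2/DTT buffer, 2 h at room temperature (linear 1–6 h), terminated by EDTA/EGTA.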

Test [2] addresses T2, PI3K (Homo sapiens, UniProt P48736).
T2 construct: PI3 Kinase γ IC50; other: PI3 Kinase γ; other: PI3 Kinase γ isoform, fluorescence polarization
Briefly: Fluorescence polarization assay for PI3K. The test is classed as biochemical. Particulars: read-out: PI3 Kinase γ IC50. The procedure, abridged: (§1)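 Fluorescence-polarization competition readout: after 30–60 min of PIP2/ATP turnover in 1% DMSO, a stop mix with GST-GRP (70 nM) and red probe (10 nM) was added.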
In general terms: In fluorescence polarisation assays a small probe gives low polarisation when free and higher when bound to something large.

Test [3] addresses T3, PI3K (Homo sapiens, UniProt P42336).
T3 construct: PI3 Kinase α IC50; other: PI3 Kinase α; other: PI3 Kinase α isoform, fluorescence polarization
The experiment in a line: Fluorescence polarization assay for PI3K. It counts as biochemical. Particulars: read-out: PI3 Kinase α IC50. The procedure, abridged:
as §1

For test [4], the system named is prostate line LNCap. The experiment in a line: In vitro cell culture growth assay (MTS), LNCap. It counts as cell-based. Particulars: Homo sapiens, LNCaP, 72 h, LNCap cells, three days after drug treatment. The procedure, abridged: (§2)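 Plate cells; add inhibitors on day 1; after 3 days' treatment, add MTS; read A490; express as percent growth of vehicle-treated control.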

Test [5] has as its system breast line MDA468. Briefly: In vitro cell culture growth assay (MTS), MDA468. It counts as cell-based. Particulars: Homo sapiens, 72 h, MDA468 cells, three days after drug treatment. The procedure, abridged: as §2
[6] abbreviates: purified human mTOR enzyme, DELFIA format.
Where [7] appears, read: PI3 Kinase γ isoform, fluorescence polarization.
The mark [8] stands for this setting: PI3 Kinase α isoform, fluorescence polarization.

Read-outs that look alike come from different tables or passages of the source.

T3 sequence (P42336 whole entry, canonical isoform): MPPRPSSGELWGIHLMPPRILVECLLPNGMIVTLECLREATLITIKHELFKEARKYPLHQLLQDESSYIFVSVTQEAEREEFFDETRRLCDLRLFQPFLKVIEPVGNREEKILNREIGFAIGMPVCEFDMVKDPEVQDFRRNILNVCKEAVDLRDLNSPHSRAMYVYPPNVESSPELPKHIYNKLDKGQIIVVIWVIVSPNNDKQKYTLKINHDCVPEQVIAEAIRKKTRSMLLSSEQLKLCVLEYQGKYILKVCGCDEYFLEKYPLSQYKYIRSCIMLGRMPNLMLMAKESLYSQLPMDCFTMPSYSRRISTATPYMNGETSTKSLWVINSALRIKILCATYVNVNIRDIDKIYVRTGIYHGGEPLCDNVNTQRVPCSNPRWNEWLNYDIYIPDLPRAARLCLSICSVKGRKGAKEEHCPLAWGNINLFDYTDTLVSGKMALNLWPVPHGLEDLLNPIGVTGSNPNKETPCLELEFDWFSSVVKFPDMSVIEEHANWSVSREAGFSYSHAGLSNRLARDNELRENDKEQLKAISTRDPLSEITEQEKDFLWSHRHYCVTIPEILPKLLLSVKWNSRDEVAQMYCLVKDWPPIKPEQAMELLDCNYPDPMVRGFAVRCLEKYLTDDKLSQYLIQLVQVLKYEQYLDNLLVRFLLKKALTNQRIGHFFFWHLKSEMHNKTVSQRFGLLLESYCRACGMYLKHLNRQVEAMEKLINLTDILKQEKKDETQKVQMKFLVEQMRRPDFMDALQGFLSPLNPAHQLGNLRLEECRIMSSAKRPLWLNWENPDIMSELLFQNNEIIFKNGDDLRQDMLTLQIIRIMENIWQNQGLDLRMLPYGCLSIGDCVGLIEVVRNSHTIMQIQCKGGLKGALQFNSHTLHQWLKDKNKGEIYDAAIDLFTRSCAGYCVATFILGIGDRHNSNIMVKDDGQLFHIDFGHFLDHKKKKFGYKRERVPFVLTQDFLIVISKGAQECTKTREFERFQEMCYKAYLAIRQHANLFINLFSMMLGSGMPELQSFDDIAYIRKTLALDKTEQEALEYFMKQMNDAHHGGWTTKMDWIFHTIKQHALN
T2 sequence (P48736 whole entry, canonical isoform): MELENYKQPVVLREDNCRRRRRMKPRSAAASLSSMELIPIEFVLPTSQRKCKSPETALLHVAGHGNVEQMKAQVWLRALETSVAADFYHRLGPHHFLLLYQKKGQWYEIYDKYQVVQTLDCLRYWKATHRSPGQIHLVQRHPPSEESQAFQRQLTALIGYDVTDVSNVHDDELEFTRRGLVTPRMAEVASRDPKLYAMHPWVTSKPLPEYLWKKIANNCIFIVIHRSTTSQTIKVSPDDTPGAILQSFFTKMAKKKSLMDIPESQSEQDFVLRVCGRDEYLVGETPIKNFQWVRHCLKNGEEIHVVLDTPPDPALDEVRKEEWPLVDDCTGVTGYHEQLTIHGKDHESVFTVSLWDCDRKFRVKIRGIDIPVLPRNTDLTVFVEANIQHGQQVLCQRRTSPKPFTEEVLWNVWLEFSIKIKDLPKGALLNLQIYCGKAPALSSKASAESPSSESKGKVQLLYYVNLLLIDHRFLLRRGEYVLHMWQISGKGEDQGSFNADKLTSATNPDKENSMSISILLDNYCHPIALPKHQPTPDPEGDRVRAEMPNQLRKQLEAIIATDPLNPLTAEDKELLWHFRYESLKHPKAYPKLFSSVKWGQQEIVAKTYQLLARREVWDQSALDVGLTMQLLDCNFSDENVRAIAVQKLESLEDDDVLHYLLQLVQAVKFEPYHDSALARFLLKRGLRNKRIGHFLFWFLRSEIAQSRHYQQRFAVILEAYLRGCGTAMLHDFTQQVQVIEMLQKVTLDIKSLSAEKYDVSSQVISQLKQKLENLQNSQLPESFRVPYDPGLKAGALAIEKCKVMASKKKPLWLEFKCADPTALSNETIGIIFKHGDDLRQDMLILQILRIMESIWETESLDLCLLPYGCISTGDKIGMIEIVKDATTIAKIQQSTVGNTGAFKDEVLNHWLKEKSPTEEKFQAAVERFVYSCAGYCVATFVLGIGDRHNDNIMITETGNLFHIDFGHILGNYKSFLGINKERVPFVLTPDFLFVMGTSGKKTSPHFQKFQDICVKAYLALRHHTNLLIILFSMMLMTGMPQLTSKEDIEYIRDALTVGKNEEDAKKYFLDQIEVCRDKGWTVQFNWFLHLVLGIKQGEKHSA

One may read the IC50 as the concentration at which inhibition is half-maximal. `COC(=O)N1CCC(n2ncc3c(N4C5CCC4COC5)nc(-c4ccc(NC(=O)OCCO)cc4)nc32)CC1` [Example 355, methyl 4-[6-(4-{[(2-hydroxyethoxy)carbonyl]amino}phenyl)-4-(3-oxa-8-azabicyclo[3.2.1]oct-8-yl)-1H-pyrazolo[3,4-d]pyrimidin-1-yl]piperidine-1-carboxylate]: the IC50 worked out at 0.775 nM in test [1] (setting [6]); 6800 nM in test [2] (setting [7]); 7450 nM in test [3] (setting [8]); 58 nM in test [4]; 220 nM in test [5].
For `CCn1ncc2c(N3CC4CCC(C3)O4)nc(-c3ccc(NC(=O)Nc4ccc(C(=O)NN5CCCC5)cc4)cc3)nc21` [Example 290, 4-[({4-[1-ethyl-4-(8-oxa-3-azabicyclo[3.2.1]oct-3-yl)-1H-pyrazolo[3,4-d]pyrimidin-6-yl]phenyl}carbamoyl)amino]-N-pyrrolidin-1-ylbenzamide], the IC50 in test [1] is 0.175 nM; in test [2] (PI3 Kinase γ), 757 nM; in test [3] (PI3 Kinase α), 102 nM; in test [4], less than 1 nM; in test [5], 4 nM.
As to `CCn1ncc2c(N3CC4CCC(C3)O4)nc(-c3ccc(NC(=O)N[C@H]4CC[C@H](N)CC4)cc3)nc21` (relative stereo) [Example 230, 1-(trans-4-aminocyclohexyl)-3-{4-[1-ethyl-4-(8-oxa-3-azabicyclo[3.2.1]oct-3-yl)-1H-pyrazolo[3,4-d]pyrimidin-6-yl]phenyl}urea], the IC50 is 15.5 nM in test [1]; more than 10000 nM in test [2] (PI3 Kinase γ); 2890 nM in test [3] (PI3 Kinase α); 1300 nM in test [4]; 1500 nM in test [5].
Consider `CCn1ncc2c(N3CC4CCC(C3)O4)nc(-c3ccc(NC(=O)NCCN4CCN(C)CC4)cc3)nc21` [Example 178, 1-{4-[1-ethyl-4-(8-oxa-3-azabicyclo[3.2.1]oct-3-yl)-1H-pyrazolo[3,4-d]pyrimidin-6-yl]phenyl}-3-[2-(4-methylpiperazin-1-yl)ethyl]urea], for which the concentration for half-maximal inhibition (IC50) in test [1] was 87 nM; in test [2] (PI3 Kinase γ), more than 10000 nM; in test [3] (PI3 Kinase α), 959 nM; in test [4] it was 1900 nM; in test [5] it was 5800 nM.
The matching figures for `CNC(=O)Nc1ccc(-c2nc(N3CC4CCC(C3)O4)c3cnn(C4CCC(OC)(OC)CC4)c3n2)cc1` [Example 150, 1-{4-[1-(4,4-dimethoxycyclohexyl)-4-(8-oxa-3-azabicyclo[3.2.1]oct-3-yl)-1H-pyrazolo[3,4-d]pyrimidin-6-yl]phenyl}-3-methylurea]: 0.745 nM, more than 10000 nM, 648 nM, 2 nM and 35 nM.
As for `CN(C)c1ccc(NC(=O)Nc2ccc(-c3nc(N4CC5CCC(C4)O5)c4cnn(CCF)c4n3)cc2)cc1` [Example 242, 1-[4-(dimethylamino)phenyl]-3-{4-[1-(2-fluoroethyl)-4-(8-oxa-3-azabicyclo[3.2.1]oct-3-yl)-1H-pyrazolo[3,4-d]pyrimidin-6-yl]phenyl}urea], the half-maximal inhibitory concentration (IC50) was 0.655 nM in test [1]; more than 10000 nM in test [2] (PI3 Kinase γ); 869 nM in test [3] (PI3 Kinase α); 4 nM in test [4]; 19 nM in test [5].
On the same counts, the results for `CCNC(=O)Nc1ccc(-c2nc(N3CC4CCC(C3)O4)c3cnn(CCN(C)C)c3n2)cc1` [Example 160, 1-(4-{1-[2-(dimethylamino)ethyl]-4-(8-oxa-3-azabicyclo[3.2.1]oct-3-yl)-1H-pyrazolo[3,4-d]pyrimidin-6-yl}phenyl)-3-ethylurea] are 13 nM, more than 10000 nM, 3120 nM, 280 nM and 1800 nM.
In the case of `COC(=O)N1CCC(n2ncc3c(N4CC5CCC(C4)O5)nc(-c4ccc(NC(=O)NCCF)cc4)nc32)CC1` [Example 10, methyl 4-[6-(4-{[(2-fluoroethyl)carbamoyl]amino}phenyl)-4-(8-oxa-3-azabicyclo[3.2.1]oct-3-yl)-1H-pyrazolo[3,4-d]pyrimidin-1-yl]piperidine-1-carboxylate], the IC50 in test [1] amounted to 0.34 nM; in test [2] (PI3 Kinase γ) it was 6590 nM; in test [3] (PI3 Kinase α) it was 4930 nM; in test [4], 12 nM; in test [5], 220 nM.
Turning to `O=C(Nc1ccc(-c2nc(N3CC4CCC(C3)O4)c3cnn(CCF)c3n2)cc1)Nc1ccc(N2CCOCC2)cc1` [Example 244, 1-{4-[1-(2-fluoroethyl)-4-(8-oxa-3-azabicyclo[3.2.1]oct-3-yl)-1H-pyrazolo[3,4-d]pyrimidin-6-yl]phenyl}-3-(4-morpholin-4-ylphenyl)urea], the IC50 in test [1] is 0.185 nM; in test [2] (PI3 Kinase γ), more than 10000 nM; in test [3] (PI3 Kinase α), 739 nM; in test [4], 1 nM; in test [5], 7 nM.
Regarding `CCn1ncc2c(N3CC4CCC(C3)O4)nc(-c3ccc(NC(=O)NC)cc3)nc21` [Example 40, 1-{4-[1-ethyl-4-(8-oxa-3-azabicyclo[3.2.1]oct-3-yl)-1H-pyrazolo[3,4-d]pyrimidin-6-yl]phenyl}-3-methylurea], the half-inhibitory concentration (IC50) was 0.58 nM in test [1]; more than 10000 nM in test [2] (PI3 Kinase γ); 270 nM in test [3] (PI3 Kinase α); 70 nM in test [4]; 300 nM in test [5].
Consider `Oc1cccc(-c2nc(N3C[C@@H]4C[C@H]3CO4)c3cnn(-c4ccccc4)c3n2)c1` [Example 382, 3-{4-[(1S,4S)-2-oxa-5-azabicyclo[2.2.1]hept-5-yl]-1-phenyl-1H-pyrazolo[3,4-d]pyrimidin-6-yl}phenol], for which the IC50 in test [1] (setting [6]) is 49.5 nM; in test [2] (setting [7]), 11600 nM; in test [3] (setting [8]), 1910 nM; in test [4], 1200 nM; in test [5], 5500 nM.
On to `COC(=O)N1CCC(n2ncc3c(N4CC5CCC(C4)O5)nc(-c4ccc(NC(=O)Nc5ccc(CO)cc5)cc4)nc32)CC1` [Example 164, methyl 4-{6-[4-({[4-(hydroxymethyl)phenyl]carbamoyl}amino)phenyl]-4-(8-oxa-3-azabicyclo[3.2.1]oct-3-yl)-1H-pyrazolo[3,4-d]pyrimidin-1-yl}piperidine-1-carboxylate], for which the IC50 in test [1] is 0.08 nM; in test [2] (PI3 Kinase γ), 1820 nM; in test [3] (PI3 Kinase α), 29 nM; in test [4] it was less than 1 nM; in test [5], less than 1 nM.
For the compound `CCn1nc(CN2CCN(C)CC2)c2c(N3CC4CCC(C3)O4)nc(-c3ccc(NC(=O)NC)cc3)nc21` [Example 353, 1-(4-{1-ethyl-3-[(4-methylpiperazin-1-yl)methyl]-4-(8-oxa-3-azabicyclo[3.2.1]oct-3-yl)-1H-pyrazolo[3,4-d]pyrimidin-6-yl}phenyl)-3-methylurea], the half-maximal inhibitory concentration (IC50) is 15 nM in test [1] (setting [6]); more than 10000 nM in test [2] (setting [7]); 1560 nM in test [3] (setting [8]); 700 nM in test [4]; 1200 nM in test [5].
For the compound `CCNC(=O)Nc1ccc(-c2nc(N3CC4CCC(C3)O4)c3cnn(C4CCC5(CC4)OCCO5)c3n2)cc1` [Example 123, 1-{4-[1-(1,4-dioxaspiro[4.5]dec-8-yl)-4-(8-oxa-3-azabicyclo[3.2.1]oct-3-yl)-1H-pyrazolo[3,4-d]pyrimidin-6-yl]phenyl}-3-ethylurea], the 50% inhibitory concentration (IC50) in test [1] is 0.26 nM; in test [2] (PI3 Kinase γ), more than 10000 nM; in test [3] (PI3 Kinase α), 4580 nM; in test [4], 1 nM; in test [5] it was 9 nM.

(Values after patent US8129371B2, “Thienopyrimidine and pyrazolopyrimidine compounds and their use as mTOR kinase and PI3 kinase inhibitors” (Wyeth LLC, priority 2007, dated 2012).)
